We go through 12 molecules from the NIST ThermoML archive (doi:10.1016/j.jct.2010.11.011).

For orientation: mass density means mass per unit of volume.

± gives the expanded uncertainty stated by the source.

The conditions of data set [1]: for mass density: 293 K, 101.33 kPa, Flotation in CCl4 and Heptane; for Triple point temperature: DTA.
A short description of data set [2]: Molar enthalpy of transition or fusion. The conditions noted are these: DSC.

With `CCCCCCCCCCCCC(=O)[O-].[Li+]` [lithium tridecanoate], the mass density in data set [1] (Crystal 2) was determined as 1100 ± 40 kg/m3. Further, in data set [1] (Crystal 1), the Triple point temperature is listed as 504.27 ± 0.4 K. Besides, the “Molar enthalpy of transition or fusion” value in data set [2] (Crystal 1) stood at 3.32 ± 0.55 kcal/mol.
For the molecule `CCCCCCCCCCCCCCC(=O)[O-].[Li+]` [lithium pentadecanoate], the mass density in data set [1] (Crystal 2) was 1100 ± 40 kg/m3. Also, the Triple point temperature in data set [1] (Crystal 1) was 501.25 ± 0.39 K. The “Molar enthalpy of transition or fusion” value in data set [2] (Crystal 1) came out at 3.86 ± 0.263 kcal/mol.
On to `CCCCCCCCCCC(=O)[O-].[Li+]` [lithium undecanoate], for which the mass density in data set [1] (Crystal 2) turned out to be 1120 ± 50 kg/m3. In addition, the Triple point temperature in data set [1] (Crystal) was determined as 507.27 ± 3.1 K. Moreover, the “Molar enthalpy of transition or fusion” value in data set [2] (Crystal) was found to be 5.85 ± 0.203 kcal/mol.
With `CCCCCCCCCCCCCCCC(=O)[O-].[Li+]` [lithium hexadecanoate], in data set [1] (Crystal 2), the mass density was 1050 ± 40 kg/m3. In addition, the Triple point temperature in data set [1] (Crystal 1) turned out to be 500.89 ± 2.8 K. Besides, the “Molar enthalpy of transition or fusion” value in data set [2] (Crystal 1) was 3.77 ± 1.2 kcal/mol.
The matching figures for `CCCCCCCCCCCC(=O)[O-].[Li+]` [lithium dodecanoate]: 1060 ± 40 kg/m3, 501.95 ± 1.8 K and 6.26 ± 1.36 kcal/mol.
As to `CCCCCCCCCCCCCC(=O)[O-].[Li+]` [lithium tetradecanoate], the mass density in data set [1] (Crystal 2) is given as 1050 ± 40 kg/m3. Besides, in data set [1] (Crystal 1), the Triple point temperature is given as 502.4 ± 1 K. Also, in data set [2] (Crystal 1), the “Molar enthalpy of transition or fusion” value was 6.06 ± 8.6 kcal/mol.
On to `CCCCCCCCCCCCCCCCCCC(=O)[O-].[Li+]` [lithium nonadecanoate], for which, in data set [1] (Crystal 2), the mass density is recorded as 1080 ± 40 kg/m3. Further, in data set [1] (Crystal 1), the Triple point temperature is on record as 496.35 ± 1.2 K. Besides, the “Molar enthalpy of transition or fusion” value in data set [2] (Crystal 1) amounted to 3.69 ± 1.17 kcal/mol.
With `CCCCCCCCCCCCCCCCC(=O)[O-].[Li+]` [lithium heptadecanoate], the mass density in data set [1] (Crystal 2) is listed as 1090 ± 40 kg/m3. The Triple point temperature in data set [1] (Crystal 1) was found to be 498.85 ± 0.59 K. In data set [2] (Crystal 1), the “Molar enthalpy of transition or fusion” value is 3.2 ± 0.502 kcal/mol.
The matching figures for `CCCCCCCCCCCCCCCCCC(=O)[O-].[Li+]` [lithium octadecanoate]: 1040 ± 40 kg/m3, 499.85 ± 0.59 K and 4.05 ± 0.311 kcal/mol.
Turning to `CCCCCCCC(=O)[O-].[Li+]` [lithium octanoate], in data set [1] (Crystal), the mass density is 1080 ± 40 kg/m3 and the Triple point temperature amounted to 536.8 ± 0.7 K. Further, in data set [2] (Crystal), the “Molar enthalpy of transition or fusion” value amounted to 5.6 ± 0.227 kcal/mol.
With `CCCCCCCCCC(=O)[O-].[Li+]` [lithium decanoate], in data set [1] (Crystal 2), the mass density was 1080 ± 40 kg/m3. Moreover, the Triple point temperature in data set [1] (Crystal 1) worked out at 516.6 ± 1.3 K. Further, the “Molar enthalpy of transition or fusion” value in data set [2] (Crystal 1) was 5.92 ± 1.43 kcal/mol.
On to `CCCCCCCCC(=O)[O-].[Li+]` [lithium nonanoate], for which the mass density in data set [1] (Crystal 2) amounted to 1120 ± 50 kg/m3. Also, the Triple point temperature in data set [1] (Crystal 1) is 524.1 ± 1.2 K. Also, in data set [2] (Crystal 1), the “Molar enthalpy of transition or fusion” value stood at 5.4 ± 0.406 kcal/mol.
